From ChEMBL document CHEMBL2390905, “Recent development of potent analogues of oxazolidinone antibacterial agents” (Bioorg Med Chem, 2013)
pKi: −log10 of the molar value. Values after ≈ are worked out from the molar mass of the structure shown.

Columns and labels:
[1] = test system: Enterococcus faecalis; test: Antibacterial activity against Enterococcus faecalis assessed as growth inhibition; format: functional
[2] = test system: Staphylococcus epidermidis; test: Antibacterial activity against Staphylococcus epidermidis assessed as growth inhibition; format: functional
[3] = test system: Staphylococcus aureus; test: Antibacterial activity against methicillin-resistant Staphylococcus aureus assessed as growth inhibition; format: functional
[4] = test system: Enterococcus faecalis; test: Antibacterial activity against Enterococcus faecalis ATCC 29212 assessed as growth inhibition after 16 to 20 hrs by broth microdilution method; format: functional
[5] = test system: Staphylococcus aureus; test: Antibacterial activity against linezolid-resistant Staphylococcus aureus PTCC 100 assessed as growth inhibition after 16 to 20 hrs by broth microdilution method; format: functional
[6] = test system: Staphylococcus aureus; test: Antibacterial activity against methicillin-sensitive Staphylococcus aureus ATCC 29213 assessed as growth inhibition after 16 to 20 hrs by broth microdilution method; format: functional
[7] = test system: Enterococcus faecium; test: Antibacterial activity against Enterococcus faecium ATCC 700221 assessed as growth inhibition after 16 to 20 hrs by broth microdilution method; format: functional
[8] = test system: Staphylococcus aureus; test: Antibacterial activity against methicillin-resistant Staphylococcus aureus ATCC 33591 assessed as growth inhibition after 16 to 20 hrs by broth microdilution method; format: functional
[9] = molecular target: T1, Amine oxidase [flavin-containing] A (Homo sapiens, UniProt P21397); test: Inhibition of MAO-A (unknown origin) by luciferase […] assay
T1 sequence (P21397 whole entry): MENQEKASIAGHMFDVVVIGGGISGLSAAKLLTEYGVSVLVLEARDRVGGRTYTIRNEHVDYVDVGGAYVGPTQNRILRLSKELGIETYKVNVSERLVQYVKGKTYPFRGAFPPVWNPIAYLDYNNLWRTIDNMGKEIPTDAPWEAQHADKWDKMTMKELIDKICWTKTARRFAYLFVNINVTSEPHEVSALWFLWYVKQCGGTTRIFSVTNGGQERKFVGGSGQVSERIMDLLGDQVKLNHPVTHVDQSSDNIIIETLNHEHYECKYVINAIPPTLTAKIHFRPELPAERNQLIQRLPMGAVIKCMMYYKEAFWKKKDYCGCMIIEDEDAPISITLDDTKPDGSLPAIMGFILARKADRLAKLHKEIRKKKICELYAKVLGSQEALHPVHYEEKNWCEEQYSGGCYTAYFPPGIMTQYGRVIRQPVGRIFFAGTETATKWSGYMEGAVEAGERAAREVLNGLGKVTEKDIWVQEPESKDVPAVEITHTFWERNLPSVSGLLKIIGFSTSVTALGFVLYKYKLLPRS

[10] = test system: Staphylococcus aureus; test: Ratio of linezolid MIC to compound MIC for methicillin-resistant Staphylococcus aureus; format: functional
[11] = test system: Haemophilus influenzae; test: Ratio of tedizolid MIC to compound MIC for Haemophilus influenzae; format: functional
[12] = test system: Enterococcus; test: Ratio of tedizolid MIC to compound MIC for Enterococcus spp; format: functional
[13] = test system: Staphylococcus aureus; test: Ratio of tedizolid MIC to compound MIC for methicillin-resistant Staphylococcus aureus; format: functional
[14] = test system: Streptococcus pneumoniae; test: Ratio of tedizolid MIC to compound MIC for Streptococcus pneumoniae; format: functional
[15] = test system: Enterococcus; test: Ratio of linezolid MIC to compound MIC for Enterococcus spp; format: functional
[16] = test system: Haemophilus influenzae; test: Ratio of linezolid MIC to compound MIC for Haemophilus influenzae; format: functional
[17] = test system: Streptococcus pneumoniae; test: Ratio of linezolid MIC to compound MIC for Streptococcus pneumoniae; format: functional
[18] = test system: Enterococcus faecalis; test: Ratio of linezolid MIC to compound MIC for multidrug-resistant Enterococcus faecalis; format: functional
[19] = test system: Staphylococcus aureus; test: Ratio of linezolid MIC to compound MIC for multidrug-resistant Staphylococcus aureus; format: functional
[20] = test system: Staphylococcus epidermidis; test: Ratio of linezolid MIC to compound MIC for multidrug-resistant Staphylococcus epidermidis; format: functional
[21] = test system: Escherichia coli; test: Ratio of linezolid MIC to compound MIC for Escherichia coli; format: functional
[22] = test system: Enterococcus faecium; test: Ratio of linezolid MIC to compound MIC for multidrug-resistant Enterococcus faecium; format: functional
[23] = test system: Mycobacterium tuberculosis; test: Ratio of mefloquine MIC to compound MIC for Mycobacterium tuberculosis H37Rv; format: functional

Work on `CC(=O)NC[C@H]1CN(c2ccc(N3CCN(C(=O)CCl)CC3)c(F)c2)C(=O)O1` yielded an MIC [1] of 0.5 µg/mL (≈ 1.21 µM), an MIC [2] of 1 µg/mL (≈ 2.42 µM) and an MIC [3] of 1 µg/mL (≈ 2.42 µM).
Compound `CC(=O)NC[C@H]1CN(c2ccc(N3CCN(C(=O)C(Cl)Cl)CC3)c(F)c2)C(=O)O1` has an MIC [1] of 0.5 µg/mL (≈ 1.12 µM), an MIC [2] of 1 µg/mL (≈ 2.24 µM) and an MIC [3] of 1 µg/mL (≈ 2.24 µM).
Compound `O=C(/C=C/c1ccccc1)NC[C@H]1CN(c2cc(F)c(N3CCN(C(=O)CNC(=O)c4cn5cccnc5n4)CC3)c(F)c2)C(=O)O1` has an MIC [4] of 0.125 µg/mL (≈ 0.194 µM), an MIC [5] of 1 µg/mL (≈ 1.55 µM) and an MIC [6] of 0.125 µg/mL (≈ 0.194 µM). It also gave an MIC [7] of 0.25 µg/mL (≈ 0.388 µM) and an MIC [8] of 0.125 µg/mL (≈ 0.194 µM).
`CC(=O)NC[C@H]1CN(c2ccc(N3C=NN(C)CC3)c(F)c2)C(=O)O1` gave a pKi [9] of 5.40.
`CN1CCN(c2ccc(N3C[C@H](COC(N)=S)OC3=O)cc2F)C=N1` gave a pKi [9] of 5.40.
In the case of `O=C1O[C@@H](CO)CN1c1ccc(-c2ccc(N3CCOC3=O)nc2)c(F)c1`, the Ratio [10] was 8, the Ratio [11] was 2 and the Ratio [12] was 2. It also gave a Ratio [13] of 2, a Ratio [14] of 2 and a Ratio [15] of 8. The Ratio [16] was 8 and the Ratio [17] was 8.
With `CC(=O)NC[C@H]1CN(c2ccc(-c3ccc(C(=O)NN)cc3)c(F)c2)C(=O)O1` the Ratio [18] was 2, the Ratio [19] was 2 and the Ratio [20] was 2. For the same compound, the Ratio [21] was 2, the Ratio [16] was 2 and the Ratio [22] was 2.
`CCOC(=O)c1cc(COc2cc(C(F)(F)F)nc3c(C(F)(F)F)cccc23)on1` showed a Ratio [23] of 14.4.
In the case of `CC(=O)NC[C@H]1CN(c2ccc(N3CCOCC3)c(F)c2)C(=O)O1` [LINEZOLID], the pKi [9] was 5.10.
For `Cn1nnc(-c2ccc(-c3ccc(N4C[C@H](CO)OC4=O)cc3F)cn2)n1` [TEDIZOLID], the pKi [9] was greater than 5.70.
